From PubChem BioAssay (NCI)
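Protocol summary: plate cells (96-well), add compound at 5 concentrations, incubate 48 h, interpolate endpoints linearly. TGI is the concentration that stops growth completely.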

Legend:
Assay in all cases: NCI tumour cell line growth inhibition, 48 h
HL-60(TB) leukemia = test system: HL-60(TB) leukemia
SK-OV-3 ovarian = test system: SK-OV-3 ovarian
RXF-631 renal = test system: RXF-631 renal
MDA-N = test system: MDA-N
IGROV1 ovarian = test system: IGROV1 ovarian
EKVX NSCLC = test system: EKVX NSCLC
LOX IMVI melanoma = test system: LOX IMVI melanoma
MCF7 breast = test system: MCF7 breast
DMS 273 small cell lung = test system: DMS 273 small cell lung
TK-10 renal = test system: TK-10 renal
MOLT-4 leukemia = test system: MOLT-4 leukemia
RPMI-8226 leukemia = test system: RPMI-8226 leukemia
SK-MEL-28 melanoma = test system: SK-MEL-28 melanoma
UACC-62 melanoma = test system: UACC-62 melanoma
786-0 renal = test system: 786-0 renal
MDA-MB-231 breast = test system: MDA-MB-231 breast
SW-620 colon = test system: SW-620 colon
CCRF-CEM leukemia = test system: CCRF-CEM leukemia
NCI/ADR-RES ovarian = test system: NCI/ADR-RES ovarian
SNB-19 CNS = test system: SNB-19 CNS
UO-31 renal = test system: UO-31 renal
UACC-257 melanoma = test system: UACC-257 melanoma
COLO 205 colon = test system: COLO 205 colon
SNB-78 CNS = test system: SNB-78 CNS
T-47D breast = test system: T-47D breast
BT-549 breast = test system: BT-549 breast
HCT-116 colon = test system: HCT-116 colon
OVCAR-3 ovarian = test system: OVCAR-3 ovarian
NCI-H522 lung = test system: NCI-H522 lung
HOP-92 NSCLC = test system: HOP-92 NSCLC
M14 melanoma = test system: M14 melanoma
SF-295 CNS = test system: SF-295 CNS
HCC-2998 colon = test system: HCC-2998 colon
KM20L2 colon = test system: KM20L2 colon
SK-MEL-5 melanoma = test system: SK-MEL-5 melanoma
SN12C renal = test system: SN12C renal
LXFL 529 NSCLC = test system: LXFL 529 NSCLC
MDA-MB-435 = test system: MDA-MB-435
HCT-15 colon = test system: HCT-15 colon
SF-268 CNS = test system: SF-268 CNS
DLD-1 colon = test system: DLD-1 colon
SNB-75 CNS = test system: SNB-75 CNS
ACHN renal = test system: ACHN renal
U251 CNS = test system: U251 CNS
HS 578T breast = test system: HS 578T breast
KM12 colon = test system: KM12 colon
DMS 114 small cell lung = test system: DMS 114 small cell lung
M19-MEL melanoma = test system: M19-MEL melanoma
HT29 colon = test system: HT29 colon
MALME-3M melanoma = test system: MALME-3M melanoma
RXF 393 renal = test system: RXF 393 renal
A549 NSCLC = test system: A549 NSCLC
A498 renal = test system: A498 renal
SR leukemia = test system: SR leukemia
XF 498 CNS = test system: XF 498 CNS
SK-MEL-2 melanoma = test system: SK-MEL-2 melanoma
NCI-H460 lung = test system: NCI-H460 lung
NCI-H23 lung = test system: NCI-H23 lung
HOP-18 NSCLC = test system: HOP-18 NSCLC
SF-539 CNS = test system: SF-539 CNS
NCI-H226 lung = test system: NCI-H226 lung
OVCAR-5 ovarian = test system: OVCAR-5 ovarian
OVCAR-4 ovarian = test system: OVCAR-4 ovarian
CAKI-1 renal = test system: CAKI-1 renal
PC-3 prostate = test system: PC-3 prostate
K-562 leukemia = test system: K-562 leukemia
HOP-62 NSCLC = test system: HOP-62 NSCLC
DU-145 prostate = test system: DU-145 prostate
OVCAR-8 ovarian = test system: OVCAR-8 ovarian
P388 leukemia = test system: P388 leukemia
P388/ADR leukemia = test system: P388/ADR leukemia
SN12K1 renal = test system: SN12K1 renal

## O=C(CCN1CCCCC1)N1CCc2c([nH]c3ccccc23)C1c1cccnc1 (configuration not stated)
HL-60(TB) leukemia
  TGI: > 93.2 µM
SK-OV-3 ovarian
  TGI: > 100 µM
RXF-631 renal
  TGI: > 80.7 µM
MDA-N
  TGI: 75 µM
IGROV1 ovarian
  TGI: > 100 µM
EKVX NSCLC
  TGI: 98.2 µM
LOX IMVI melanoma
  TGI: > 100 µM
MCF7 breast
  TGI: > 100 µM
DMS 273 small cell lung
  TGI: > 100 µM
TK-10 renal
  TGI: > 100 µM
MOLT-4 leukemia
  TGI: > 100 µM
RPMI-8226 leukemia
  TGI: > 100 µM
SK-MEL-28 melanoma
  TGI: 37.2 µM
UACC-62 melanoma
  TGI: 42.2 µM
786-0 renal
  TGI: 82.9 µM
MDA-MB-231 breast
  TGI: > 74.2 µM
SW-620 colon
  TGI: > 100 µM
CCRF-CEM leukemia
  TGI: 99 µM
NCI/ADR-RES ovarian
  TGI: > 100 µM
SNB-19 CNS
  TGI: > 100 µM
UO-31 renal
  TGI: 71.1 µM
UACC-257 melanoma
  TGI: 34.7 µM
COLO 205 colon
  TGI: 44.8 µM
SNB-78 CNS
  TGI: > 100 µM
T-47D breast
  TGI: > 100 µM
BT-549 breast
  TGI: > 86.2 µM
HCT-116 colon
  TGI: > 100 µM
OVCAR-3 ovarian
  TGI: > 100 µM
NCI-H522 lung
  TGI: 79.7 µM
HOP-92 NSCLC
  TGI: 66 µM
M14 melanoma
  TGI: 42.2 µM
SF-295 CNS
  TGI: > 100 µM
HCC-2998 colon
  TGI: 54.8 µM
KM20L2 colon
  TGI: > 70.8 µM
SK-MEL-5 melanoma
  TGI: 41.3 µM
SN12C renal
  TGI: > 100 µM
LXFL 529 NSCLC
  TGI: 38.1 µM
MDA-MB-435
  TGI: 75.1 µM
HCT-15 colon
  TGI: > 100 µM
SF-268 CNS
  TGI: > 87.9 µM
DLD-1 colon
  TGI: > 100 µM
SNB-75 CNS
  TGI: > 92.1 µM
ACHN renal
  TGI: > 100 µM
U251 CNS
  TGI: > 100 µM
HS 578T breast
  TGI: > 100 µM
KM12 colon
  TGI: > 100 µM
DMS 114 small cell lung
  TGI: > 69.7 µM
M19-MEL melanoma
  TGI: 46.1 µM
HT29 colon
  TGI: 75.4 µM
MALME-3M melanoma
  TGI: 41.6 µM
RXF 393 renal
  TGI: 81.5 µM
A549 NSCLC
  TGI: > 100 µM
A498 renal
  TGI: > 100 µM
SR leukemia
  TGI: > 100 µM
XF 498 CNS
  TGI: 57.3 µM
SK-MEL-2 melanoma
  TGI: 36.9 µM
NCI-H460 lung
  TGI: > 100 µM
NCI-H23 lung
  TGI: > 100 µM
HOP-18 NSCLC
  TGI: > 100 µM
SF-539 CNS
  TGI: > 85.7 µM
NCI-H226 lung
  TGI: > 100 µM
OVCAR-5 ovarian
  TGI: > 92.9 µM
OVCAR-4 ovarian
  TGI: > 100 µM
CAKI-1 renal
  TGI: > 100 µM
PC-3 prostate
  TGI: > 100 µM
K-562 leukemia
  TGI: 75.1 µM
HOP-62 NSCLC
  TGI: > 100 µM
DU-145 prostate
  TGI: > 100 µM
OVCAR-8 ovarian
  TGI: > 100 µM

## CCCCCCCCCOCC(COP(=O)([O-])OCC[N+](C)(C)C)OC (configuration not stated)
HL-60(TB) leukemia
  TGI: > 100 µM
SK-OV-3 ovarian
  TGI: > 100 µM
IGROV1 ovarian
  TGI: > 100 µM
EKVX NSCLC
  TGI: > 100 µM
LOX IMVI melanoma
  TGI: > 100 µM
MCF7 breast
  TGI: > 100 µM
DMS 273 small cell lung
  TGI: > 100 µM
P388 leukemia
  TGI: > 100 µM
MOLT-4 leukemia
  TGI: > 100 µM
RPMI-8226 leukemia
  TGI: > 100 µM
SK-MEL-28 melanoma
  TGI: > 100 µM
UACC-62 melanoma
  TGI: > 100 µM
SW-620 colon
  TGI: > 100 µM
CCRF-CEM leukemia
  TGI: > 100 µM
NCI/ADR-RES ovarian
  TGI: > 100 µM
SNB-19 CNS
  TGI: > 100 µM
UO-31 renal
  TGI: > 100 µM
P388/ADR leukemia
  TGI: > 100 µM
UACC-257 melanoma
  TGI: > 100 µM
COLO 205 colon
  TGI: > 100 µM
SNB-78 CNS
  TGI: > 100 µM
HCT-116 colon
  TGI: > 100 µM
OVCAR-3 ovarian
  TGI: > 100 µM
NCI-H522 lung
  TGI: > 100 µM
HOP-92 NSCLC
  TGI: > 100 µM
SF-295 CNS
  TGI: > 100 µM
HCC-2998 colon
  TGI: > 100 µM
KM20L2 colon
  TGI: > 100 µM
SK-MEL-5 melanoma
  TGI: > 100 µM
SN12C renal
  TGI: > 100 µM
HCT-15 colon
  TGI: > 100 µM
SF-268 CNS
  TGI: > 100 µM
DLD-1 colon
  TGI: > 100 µM
SNB-75 CNS
  TGI: > 100 µM
U251 CNS
  TGI: > 100 µM
KM12 colon
  TGI: > 100 µM
DMS 114 small cell lung
  TGI: > 100 µM
M19-MEL melanoma
  TGI: > 100 µM
HT29 colon
  TGI: > 100 µM
MALME-3M melanoma
  TGI: > 100 µM
RXF 393 renal
  TGI: > 100 µM
A549 NSCLC
  TGI: > 100 µM
A498 renal
  TGI: > 100 µM
XF 498 CNS
  TGI: > 100 µM
SK-MEL-2 melanoma
  TGI: > 100 µM
NCI-H460 lung
  TGI: > 100 µM
SN12K1 renal
  TGI: > 100 µM
NCI-H23 lung
  TGI: > 100 µM
HOP-18 NSCLC
  TGI: > 100 µM
SF-539 CNS
  TGI: > 100 µM
NCI-H226 lung
  TGI: > 100 µM
OVCAR-5 ovarian
  TGI: > 100 µM
OVCAR-4 ovarian
  TGI: > 100 µM
CAKI-1 renal
  TGI: > 100 µM
K-562 leukemia
  TGI: > 100 µM
HOP-62 NSCLC
  TGI: > 100 µM
OVCAR-8 ovarian
  TGI: > 100 µM

## C/C=C1\CN2CCc3c([nH]c4ccccc34)C2CC1CCO (configuration not stated)
HL-60(TB) leukemia
  TGI: > 100 µM
SK-OV-3 ovarian
  TGI: > 100 µM
RXF-631 renal
  TGI: > 100 µM
IGROV1 ovarian
  TGI: > 100 µM
EKVX NSCLC
  TGI: > 100 µM
LOX IMVI melanoma
  TGI: > 100 µM
DMS 273 small cell lung
  TGI: > 100 µM
TK-10 renal
  TGI: > 100 µM
MOLT-4 leukemia
  TGI: > 100 µM
SK-MEL-28 melanoma
  TGI: > 100 µM
786-0 renal
  TGI: > 100 µM
SW-620 colon
  TGI: > 100 µM
CCRF-CEM leukemia
  TGI: > 100 µM
SNB-19 CNS
  TGI: > 100 µM
UO-31 renal
  TGI: > 100 µM
UACC-257 melanoma
  TGI: > 100 µM
COLO 205 colon
  TGI: > 100 µM
SNB-78 CNS
  TGI: > 100 µM
HCT-116 colon
  TGI: > 100 µM
OVCAR-3 ovarian
  TGI: > 100 µM
NCI-H522 lung
  TGI: > 100 µM
HOP-92 NSCLC
  TGI: > 100 µM
M14 melanoma
  TGI: > 100 µM
SF-295 CNS
  TGI: > 100 µM
HCC-2998 colon
  TGI: > 100 µM
KM20L2 colon
  TGI: > 100 µM
SK-MEL-5 melanoma
  TGI: > 100 µM
SN12C renal
  TGI: > 100 µM
LXFL 529 NSCLC
  TGI: > 100 µM
HCT-15 colon
  TGI: > 100 µM
SF-268 CNS
  TGI: > 100 µM
DLD-1 colon
  TGI: > 100 µM
SNB-75 CNS
  TGI: > 100 µM
ACHN renal
  TGI: > 100 µM
U251 CNS
  TGI: > 100 µM
KM12 colon
  TGI: > 100 µM
DMS 114 small cell lung
  TGI: > 100 µM
M19-MEL melanoma
  TGI: > 100 µM
HT29 colon
  TGI: > 100 µM
MALME-3M melanoma
  TGI: > 100 µM
RXF 393 renal
  TGI: > 100 µM
A549 NSCLC
  TGI: > 100 µM
A498 renal
  TGI: > 100 µM
SR leukemia
  TGI: > 100 µM
XF 498 CNS
  TGI: > 100 µM
SK-MEL-2 melanoma
  TGI: > 100 µM
NCI-H460 lung
  TGI: > 100 µM
NCI-H23 lung
  TGI: > 100 µM
HOP-18 NSCLC
  TGI: > 100 µM
SF-539 CNS
  TGI: > 100 µM
NCI-H226 lung
  TGI: > 100 µM
OVCAR-5 ovarian
  TGI: > 100 µM
OVCAR-4 ovarian
  TGI: > 100 µM
K-562 leukemia
  TGI: > 100 µM
HOP-62 NSCLC
  TGI: > 100 µM
OVCAR-8 ovarian
  TGI: > 100 µM
